Here are results for 25 sequences from patent US10851403B2, “Cyclin-dependent kinase substrate” (SYSMEX CORPORATION, priority 2017, dated 2020).

No end group written: not given here. *: point of attachment. Biotin = O=C1N[C@H]2[C@H](CS[C@H]2CCCCC(=O)*)N1; Ahx = NCCCCCC(=O)O

Holding throughout (format): biochemical
The subject of one assay is CDK4 and CDK6. The experiment in a line: CDK reactivity test 2 (Test Example 2), CDK4/6 reactivity. The note with it: [(V2/V1)+(V4/V3)]/2; relative value when Comparative Polypeptide 2 is set as 1. Here is the method: (§1) In a tube, 15 μL of a CDK solution (composition: 10 μg/mL CDK/cyclin complex, 1% BSA, triethanolamine buffer solution (pH 7.5)) containing CDK1/cyclin A2, CDK2/cyclin E1, CDK4/cyclin D3 or CDK6/cyclin D3 (all manufactured by SignalChem) and 15 μL of a kinase reaction solution (composition: 4 μg/mL substrate peptide, 50 mM HEPES-NaOH buffer solution (pH 7.4), 15 mM MgCl2, 2 mM ATP-γS) containing Polypeptide 1, Comparative Polypeptide 1 or Comparative Polypeptide 2 as a substrate peptide were mixed, and the tube was incubated at 37° C. for 1 hour with stirring at 900 rpm using a constant temperature shaker. 21.4 μL of a fluorescent labeling reagent (composition: 180 μg/ml 5-(iodoacetamide)-FITC, 50 mM EDTA, 300 mM MOPS-NaOH, pH 7.4) was added to the tube and pipetted 5 times, then the tube was shielded from light and incubated at 37° C. for 10 minutes with stirring at 400 rpm using a constant temperature shaker. 100 μL of a fluorescent labeling reaction stop solution (composition: 30 mM N-acetyl-L-cysteine, 2 M MOPS-NaOH, pH 7.4) was added to the tube and pipetted 5 times. 30 μL (containing 0.15 μg of magnetic St-Ab beads) of a HISCL HBsAg R2 reagent (manufactured by Sysmex Corporation) was added to the tube, then the tube was shielded from light and incubated at 37° C. for about 10 minutes with stirring at 1600 rpm using a constant temperature shaker. The beads in the tube were precipitated using a magnet, and the supernatant was removed. Then, TBS-T was added, and the beads were washed at 37° C. for about 10 seconds with stirring at 1600 rpm. This washing step was performed three times in total. 100 μL of an ALP-labeled anti-FITC antibody solution (composition: 0.2 to 1 μg/mL ALP-labeled anti-FITC antibody (manufactured by Jackson ImmunoResearch Laboratories, Inc.), 100 mM MES, 150 mM NaCl, 1% BSA, pH 6.5) was added to the tube, then the tube was shielded from light and incubated at 37° C. for about 10 minutes with stirring at 1600 rpm using a constant temperature shaker. The beads in the tube were precipitated using a magnet, and the supernatant was removed. Then, TBS-T was added, and the beads were washed at 37° C. for about 10 seconds with stirring at 1600 rpm. This washing step was performed three times in total. 50 μL of a buffer solution containing Tris (manufactured by Sysmex Corporation, HISCL R4 reagent) was added to the tube and stirred at 2000 rpm at 37° C. for 10 seconds using a constant temperature shaker. 100 μL of a buffer solution (manufactured by Sysmex Corporation, HISCL R5 reagent) containing an ALP luminescent substrate (disodium 2-chloro-5-(4-methoxyspiro{1,2-dioxetane-3,2′-(5′-chloro)-tricyclo[3.3.1.1^3,7]decan}-4-yl)-1-phenyl phosphate) was added to the tube, then the tube was shielded from light and incubated at 37° C. for 4 minutes with stirring at 1600 rpm using a constant temperature shaker. The beads in the tube were precipitated using a magnet, and the supernatant was transferred to a black plate. Luminescence was detected with a luminometer, and the luminescence intensity was measured.
Test Example 2 was carried out in the same manner as in Test Example 1 except that CDK4 or CDK6 was used as CDK and the polypeptides (Polypeptides 2 to 13) obtained in Production Example 2 or Comparative Polypeptide 2 was used as a substrate peptide. V1 to V4 below:
V 1: luminescence intensity when using Comparative Polypeptide 2 and CDK4,
V 2: luminescence intensity when using any of Polypeptides 2 to 17 and A to E, and CDK4,
V 3: luminescence intensity when using Comparative Polypeptide 2 and CDK6, and
V 4: luminescence intensity when using any of Polypeptides 2 to 17 and A to E, and CDK6
were measured, and CDK4/6 reactivity was calculated based on the formula ([(V2/V1)+(V4/V3)]/2). CDK4/6 reactivity is a relative value when the CDK4/6 reactivity of Comparative Polypeptide 2 is set as 1. […]

The target in another assay is T1, CDK1/cyclin A2 (Homo sapiens, UniProt P06493).
T1 construct: purchased SignalChem
The experiment in a line: CDK reactivity test 1 (Test Example 1). The note with it: 10 μg/mL CDK/cyclin complex, 4 μg/mL substrate peptide, ATP-γS, 37° C. 1 hour. Here is the method:
(§2) The reactivity of the polypeptide obtained in Production Example 1 to CDK1, CDK2, CDK4 and CDK6 was examined. Specifically, it was performed as follows.
as §1

Another assay addresses T2, CDK2/cyclin E1 (Homo sapiens, UniProt P24941).
T2 construct: purchased SignalChem
Briefly: CDK reactivity test 1 (Test Example 1). The note with it: 10 μg/mL CDK/cyclin complex, 4 μg/mL substrate peptide, ATP-γS, 37° C. 1 hour. Here is the method:
as §2, §1

For another assay, the target named is T3, CDK4/cyclin D3 (Homo sapiens, UniProt P11802).
T3 construct: purchased SignalChem
The experiment in a line: CDK reactivity test 1 (Test Example 1). The note with it: 10 μg/mL CDK/cyclin complex, 4 μg/mL substrate peptide, ATP-γS, 37° C. 1 hour. Here is the method: as §2, §1

In a further assay the target is T4, CDK6/cyclin D3 (Homo sapiens, UniProt Q00534).
T4 construct: purchased SignalChem
The experiment in a line: CDK reactivity test 1 (Test Example 1). The note with it: 10 μg/mL CDK/cyclin complex, 4 μg/mL substrate peptide, ATP-γS, 37° C. 1 hour. Here is the method:
as §2, §1

T3 sequence (P11802 whole entry): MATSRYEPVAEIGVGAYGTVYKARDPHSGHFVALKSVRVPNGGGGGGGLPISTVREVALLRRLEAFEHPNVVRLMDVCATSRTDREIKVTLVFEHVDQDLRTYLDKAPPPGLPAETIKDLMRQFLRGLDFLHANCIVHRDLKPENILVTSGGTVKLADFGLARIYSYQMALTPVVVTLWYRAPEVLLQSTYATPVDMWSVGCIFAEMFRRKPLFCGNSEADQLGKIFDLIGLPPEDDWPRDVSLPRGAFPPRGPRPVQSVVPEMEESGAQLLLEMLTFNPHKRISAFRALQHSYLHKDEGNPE
T3 sequence (P30281 whole entry partner): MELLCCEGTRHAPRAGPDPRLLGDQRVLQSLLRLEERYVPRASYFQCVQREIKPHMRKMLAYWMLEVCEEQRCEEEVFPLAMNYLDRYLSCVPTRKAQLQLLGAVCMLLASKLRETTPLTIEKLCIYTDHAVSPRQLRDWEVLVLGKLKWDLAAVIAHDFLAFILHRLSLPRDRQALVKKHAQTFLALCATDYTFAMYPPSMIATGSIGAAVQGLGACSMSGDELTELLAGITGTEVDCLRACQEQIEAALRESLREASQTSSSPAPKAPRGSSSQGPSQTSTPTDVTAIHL
T4 sequence (Q00534 whole entry): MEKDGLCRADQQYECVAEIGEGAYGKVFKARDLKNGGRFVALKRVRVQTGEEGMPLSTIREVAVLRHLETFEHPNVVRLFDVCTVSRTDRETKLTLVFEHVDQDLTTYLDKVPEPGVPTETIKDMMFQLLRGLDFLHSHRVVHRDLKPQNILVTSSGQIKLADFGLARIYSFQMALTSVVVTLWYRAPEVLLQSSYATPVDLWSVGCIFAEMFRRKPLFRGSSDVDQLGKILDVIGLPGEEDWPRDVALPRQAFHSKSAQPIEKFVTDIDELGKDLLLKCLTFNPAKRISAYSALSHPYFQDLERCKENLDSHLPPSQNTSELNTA
T4 sequence (P30281 whole entry partner): as the sequence (P30281 whole entry partner) above
T1 sequence (P06493 whole entry): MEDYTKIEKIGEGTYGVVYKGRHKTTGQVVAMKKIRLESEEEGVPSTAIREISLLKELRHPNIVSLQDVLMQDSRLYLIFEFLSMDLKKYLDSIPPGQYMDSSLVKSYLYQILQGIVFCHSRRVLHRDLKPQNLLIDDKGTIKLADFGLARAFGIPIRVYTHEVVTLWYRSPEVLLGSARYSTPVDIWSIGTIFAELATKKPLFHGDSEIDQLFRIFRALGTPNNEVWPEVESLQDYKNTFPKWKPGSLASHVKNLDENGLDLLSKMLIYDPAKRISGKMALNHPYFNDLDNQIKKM
T1 sequence (P20248 whole entry partner): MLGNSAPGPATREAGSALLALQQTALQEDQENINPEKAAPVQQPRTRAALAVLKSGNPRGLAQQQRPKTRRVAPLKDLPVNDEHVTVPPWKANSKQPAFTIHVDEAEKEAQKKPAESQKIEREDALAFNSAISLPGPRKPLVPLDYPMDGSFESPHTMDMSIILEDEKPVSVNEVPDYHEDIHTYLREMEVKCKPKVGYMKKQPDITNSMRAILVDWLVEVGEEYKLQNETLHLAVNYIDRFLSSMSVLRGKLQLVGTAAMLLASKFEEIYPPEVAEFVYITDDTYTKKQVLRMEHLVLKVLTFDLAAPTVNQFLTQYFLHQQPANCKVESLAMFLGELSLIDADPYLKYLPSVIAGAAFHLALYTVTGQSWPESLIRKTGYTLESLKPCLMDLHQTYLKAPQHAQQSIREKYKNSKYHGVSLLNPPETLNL

“AMPWSPAPAARAGGG ({Biotin-Ahx}-AMPWSPAPAARAGGG) [Polypeptide F, mutant of Polypeptide 1, N-terminal biotin via aminohexane linker]”: in the assay with CDK4 and CDK6, the “CDK4/6 Reactivity” value is recorded as 7. On the same count and under the same terms, for “AMPWSPNPWWRGGGG ({Biotin-Ahx}-AMPWSPNPWWRGGGG) [Polypeptide 2, mutant of Polypeptide 1, N-terminal biotin via aminohexane linker]” the value was 15. Still for that read-out and setting: then “GAPWSPNPWWRGGGG ({Biotin-Ahx}-GAPWSPNPWWRGGGG) [Polypeptide 3, mutant of Polypeptide 1, N-terminal biotin via aminohexane linker]”, with 33; and “GMAWSPNPWWRGGGG ({Biotin-Ahx}-GMAWSPNPWWRGGGG) [Polypeptide 4, mutant of Polypeptide 1, N-terminal biotin via aminohexane linker]”, with 5; and “GMFWSPNPWWRGGGG ({Biotin-Ahx}-GMFWSPNPWWRGGGG) [Polypeptide D, mutant of Polypeptide 1, N-terminal biotin via aminohexane linker]”, with 5. The same measure, in the same setting: then “GMPASPNPWWRGGGG ({Biotin-Ahx}-GMPASPNPWWRGGGG) [Polypeptide 5, mutant of Polypeptide 1, N-terminal biotin via aminohexane linker]”, with 1; and “GMPFSPNPWWRGGGG ({Biotin-Ahx}-GMPFSPNPWWRGGGG) [Polypeptide 13, mutant of Polypeptide 1, N-terminal biotin via aminohexane linker]”, with 5; and “GMPWSANPWWRGGGG ({Biotin-Ahx}-GMPWSANPWWRGGGG) [Polypeptide 6, mutant of Polypeptide 1, N-terminal biotin via aminohexane linker]”, with 1. With “GMPWSFNPWWRGGGG ({Biotin-Ahx}-GMPWSFNPWWRGGGG) [Polypeptide 16, mutant of Polypeptide 1, N-terminal biotin via aminohexane linker]”, the “CDK4/6 Reactivity” value with CDK4 and CDK6 is 2.

On to “GMPWSPAPWWRGGGG ({Biotin-Ahx}-GMPWSPAPWWRGGGG) [Polypeptide 7, mutant of Polypeptide 1, N-terminal biotin via aminohexane linker]”, for which the “CDK4/6 Reactivity” value in the assay with CDK4 and CDK6 was 8.

Regarding “GMPWSPNAWWRGGGG ({Biotin-Ahx}-GMPWSPNAWWRGGGG) [Polypeptide 8, mutant of Polypeptide 1, N-terminal biotin via aminohexane linker]”, the “CDK4/6 Reactivity” value in the assay with CDK4 and CDK6 came out at 7.

Consider “GMPWSPNPAWRGGGG ({Biotin-Ahx}-GMPWSPNPAWRGGGG) [Polypeptide 9, mutant of Polypeptide 1, N-terminal biotin via aminohexane linker]”, for which the “CDK4/6 Reactivity” value in the assay with CDK4 and CDK6 was 7. “GMPWSPNPWARGGGG ({Biotin-Ahx}-GMPWSPNPWARGGGG) [Polypeptide 10, mutant of Polypeptide 1, N-terminal biotin via aminohexane linker]”: in the assay on CDK4 and CDK6, the “CDK4/6 Reactivity” value turned out to be 15. For the sequence “GMPWSPNPWWAGGGG ({Biotin-Ahx}-GMPWSPNPWWAGGGG) [Polypeptide 11, mutant of Polypeptide 1, N-terminal biotin via aminohexane linker]”, in the assay with CDK4 and CDK6, the “CDK4/6 Reactivity” value was determined as 3. On the same count and under the same terms, for “GMPWSPNPWWHGGGG ({Biotin-Ahx}-GMPWSPNPWWHGGGG) [Polypeptide A, mutant of Polypeptide 1, N-terminal biotin via aminohexane linker]” the value was 7; for “GMPWSPNPWWKGGGG ({Biotin-Ahx}-GMPWSPNPWWKGGGG) [Polypeptide B, mutant of Polypeptide 1, N-terminal biotin via aminohexane linker]”, 5; for “GMPWSPNPWWRAGGG ({Biotin-Ahx}-GMPWSPNPWWRAGGG) [Polypeptide 12, mutant of Polypeptide 1, N-terminal biotin via aminohexane linker]”, 6. In the case of “GMPWSPNPWWRGGGG ({Biotin-Ahx}-GMPWSPNPWWRGGGG) [Polypeptide 1, N-terminal residue biotin-modified via a linker (aminohexane)]”, the Luminescence intensity with CDK1/cyclin A2 is 93,190,919; in the assay with CDK2/cyclin E1, 99,167,362; in the assay with CDK4/cyclin D3 it was 101,127,359; in the assay with CDK6/cyclin D3, 122,281,045. Moreover, the “CDK4/6 Reactivity” value in the assay with CDK4 and CDK6 is given as 13.

In the case of “GMPWSWNPWWRGGGG ({Biotin-Ahx}-GMPWSWNPWWRGGGG) [Polypeptide 15, mutant of Polypeptide 1, N-terminal biotin via aminohexane linker]”, the “CDK4/6 Reactivity” value in the assay with CDK4 and CDK6 was found to be 2. For the sequence “GMPWSYNPWWRGGGG ({Biotin-Ahx}-GMPWSYNPWWRGGGG) [Polypeptide 17, mutant of Polypeptide 1, N-terminal biotin via aminohexane linker]”, the “CDK4/6 Reactivity” value in the assay with CDK4 and CDK6 came to 2. Consider “GMPYSPNPWWRGGGG ({Biotin-Ahx}-GMPYSPNPWWRGGGG) [Polypeptide 14, mutant of Polypeptide 1, N-terminal biotin via aminohexane linker]”, for which the “CDK4/6 Reactivity” value in the assay on CDK4 and CDK6 is given as 5. Same read-out and setting: for “GMWWSPNPWWRGGGG ({Biotin-Ahx}-GMWWSPNPWWRGGGG) [Polypeptide C, mutant of Polypeptide 1, N-terminal biotin via aminohexane linker]” the value was 5.

As for “GMYWSPNPWWRGGGG ({Biotin-Ahx}-GMYWSPNPWWRGGGG) [Polypeptide E, mutant of Polypeptide 1, N-terminal biotin via aminohexane linker]”, in the assay on CDK4 and CDK6, the “CDK4/6 Reactivity” value worked out at 6. For the sequence “PYKISEGLPTPTKMTPRSRI ({Biotin-Ahx}-PYKISEGLPTPTKMTPRSRI) [Comparative Polypeptide 1, partial peptide of Rb protein which is an in vivo substrate of CDK; N-terminal biotin via aminohexane linker]”, the Luminescence intensity with CDK1/cyclin A2 was 67,564,327; with CDK2/cyclin E1, 104,410,578; with CDK4/cyclin D3 it was 810,674; in the assay with CDK6/cyclin D3, 7,417,238.

In the case of “RRRFRPASPLRGPPK ({Biotin-Ahx}-RRRFRPASPLRGPPK) [Comparative Polypeptide 2, polypeptide known as a substrate of CDK4 and CDK6; N-terminal biotin via aminohexane linker]”, the Luminescence intensity in the assay with CDK1/cyclin A2 is on record as 41,516,306; with CDK2/cyclin E1, 16,211,368; with CDK4/cyclin D3, 5,439,800; with CDK6/cyclin D3 it was 17,316,904.
